Source: a melting point compilation (Tetko et al.; mined from patent text by program, amines drawn as free bases though some values may be those of a salt)

Row | melting point | Compound
1 | 155 to 156 °C | Cc1cc(C(C)(C)C)c(O)c(C)c1COC(=O)c1cccc(C(=O)OCc2c(C)cc(C(C)(C)C)c(O)c2C)c1
2 | 133 to 134 °C | O=C(CCc1ccccc1)OCCOC(=O)NC1(C(=O)O)CC1
3 | 92 to 94 °C | Oc1ccc(Cl)c(Cl)c1OCC1CO1 (stereo unspecified)
4 | 126 to 128 °C | CNCC1(C)Cc2cc(NC)c3c(c2C(c2ccccc2)=N1)CC(C)(C)O3 (stereo unspecified)
5 | 135 °C | CC(=O)NC(n1cncn1)C(Cl)(Cl)CCl (stereo unspecified)
6 | 107 to 108 °C | COc1ccc(COC(=O)CNC=S)cc1
7 | 95.9 to 97 °C | CCCC(CC1CCc2c(cccc2OCC(=O)OC)C1)=NO (stereo unspecified)
8 | 146 to 149 °C | CCCc1nc2c(N)nc3cc(OCCCNC(=O)OC(C)(C)C)ccc3c2s1
9 | 109 to 112 °C | CC(=O)OC1c2ccccc2Oc2ccccc21
10 | 215 to 217 °C | O=C1CCC(N2Cc3cc(CNC(=O)Nc4cccc(Cl)c4)ccc3C2=O)C(=O)N1 (stereo unspecified)
11 | 154 to 156 °C | CS(=O)c1ccccc1-c1nc2ncccc2o1 (stereo unspecified)
12 | 141 °C | CCC1=NNC(C)=C(C(=O)OCCOC)C1c1cccc([N+](=O)[O-])c1 (stereo unspecified)
13 | 262 to 263 °C | Cn1ncc(/C=C/C(=O)Nc2ccc(Cc3n[nH]c(=O)o3)cc2)c1-c1ccc(F)cc1
14 | 80 °C | Cn1cncc1C1(C(c2cccs2)c2cccs2)CCOC1=O (stereo unspecified)
15 | 181 to 182 °C | Cc1ccc(C(=S)NCCCCCCCNC(=S)c2ccc(C)cc2)cc1
16 | 176 to 179 °C | COc1c(NC(=O)Nc2ccc(-c3ccc(CN4CCOCC4)nc3)c3ccccc23)cc(C(C)(C)C)cc1Nc1c(N(C)C)c(=O)c1=O
17 | 174 to 177 °C | CCC1(c2ccccc2)CC(N2C(=O)c3ccccc3C2=O)C(=O)NC1=O (stereo unspecified)
18 | 141 to 143 °C | COc1cc2c(Nc3ccc(Cl)cc3F)ncnc2cc1O
19 | 150 to 151 °C | O=c1nc(-c2cccc(S(=O)(=O)CCCc3ccccc3)n2)sc2ccccc12
20 | 132 °C | COc1cc(-c2ccnc(Nc3cccc(OC(F)(F)C(F)F)c3)n2)cc(OC)c1OC
21 | 84 to 86 °C | CC(=O)SC(CC(=O)c1ccc(C(C)C)cc1)C(=O)O (stereo unspecified)
22 | 103 to 104 °C | Clc1ccc(-c2ccco2)nn1

More lines, now with the values behind:

Row | Compound | melting point
23 | Cc1cc(NC(=O)Cc2ccsc2)nc(C)c1Br | 211 °C
24 | CCOC(=O)CCC1CCCN2CCc3c([nH]c4ccccc34)C12 (stereo unspecified) | 72 to 74 °C
25 | CC(C)C(=O)NC1=NN(c2cccc(C(F)(F)F)c2)CC1 | 167 to 168 °C
26 | NC(=O)C(CCc1ccccn1)(c1ccccc1)c1ccccc1 | 145 to 146 °C
27 | CSC1c2ccccc2COc2ccc(C(=O)O)cc21 (stereo unspecified) | 198 to 200 °C
28 | c1ccc(COC[C@H]2OC(Sc3ccccc3)[C@H](OCc3ccccc3)[C@@H](OCc3ccccc3)[C@@H]2OCc2ccccc2)cc1 (stereo partly specified) | 85 to 86 °C
29 | Cc1ccc2cccc(OCc3c(Cl)ccc(S(=O)(=O)N4CCC[C@H]4C(=O)NCCCNC(=O)c4ccc(C(N)=NO)cc4)c3Cl)c2n1 | 120 to 124 °C
30 | NC(=O)c1ccc(NC(=O)C(CS)Cc2ccccc2)cc1 (stereo unspecified) | 195 to 197 °C
31 | CCOC(=O)/C(=N\OCCN=[N+]=[N-])c1csc(N)n1 | 123 to 124 °C
32 | CNC(=O)Nc1ccc(CN2OCC(C)(C)C2=O)c(Cl)c1 | 227 to 229 °C
33 | CC1(C)CCOCN1C(=O)C(Cl)Cl | 105 to 106 °C
34 | CN(C)Cc1cc(-c2ccc3c(c2)CCO3)nn(CC2CC2)c1=O | 109 to 110 °C
35 | Cc1nc(Nc2ccc(Cl)cc2)sc1-c1nc2ccccc2c(=O)n1-c1ccccc1Cl | 237 to 238 °C
36 | CC(=O)N1CCC(CC(=O)c2ccc(Nc3ncnc4c3CCC4)cc2)CC1 | 225 to 227 °C
37 | COC(=O)c1cc(Cl)ccc1NC(=O)N(C)C | 114 °C
38 | CNC1=NS(=O)(=O)N=C1NCCCOc1cccc(CN2CCCCC2)c1 | 182 to 184 °C
39 | COCCOc1ccc(CN(C(=O)C2CCCc3c(O)cccc32)c2ccc(C(C)C)cc2)cn1 (stereo unspecified) | 153 °C
40 | Cc1ccnc(C(=O)c2[nH]c3ccc(Cl)cc3c2CC(=O)NCCN)c1 | 166 °C
41 | CCCCc1nc(CC(=O)OC)c(Cl)n1Cc1ccc(NC(=O)c2ccccc2C(=O)O)cc1 | 150 to 152 °C
42 | COc1ccc(Cl)cc1C(=O)NCCc1ccc(CC(C)(C)C(=O)O)cc1 | 138 to 141 °C
43 | Fc1ccc(-c2cc3cccc(Cl)n3n2)cc1 | 156 to 157 °C
44 | O=C(O)C[C@H]1C[C@@H](CCCCCCc2ccc(Cl)cc2Cl)OC1=O (relative stereo) | 57 to 59 °C
45 | CCOC(=O)c1ccc(NCCCCCCCCCCC[Si](C)(C)C)cc1 | 66 to 68 °C
46 | Cc1cccc(-c2cc(C(F)(F)F)n3cnc(C#N)c3n2)c1 | 202 °C
47 | Cc1ccc(S(=O)(=O)OCC(COC(=O)c2ccccc2)OS(=O)(=O)c2ccc(C)cc2)cc1 (single isomer, unassigned; (-)) | 105 to 106 °C

Row | Compound | melting point
48 | CCCCCCCCC=CCCCCCCCCCCCC(=O)NC(=O)CN | 128 to 130 °C
49 | N#Cc1cc2nc(O)c(O)nc2c2ccccc12 | > 300 °C
50 | N#Cc1cnc2cc(Br)ccc2c1Nc1ccc(Cc2ccccc2)cc1 | 195 to 197 °C
51 | O=C1c2ccccc2C(=O)c2sc(-c3ncc(-c4ccccc4)o3)nc21 | > 260 °C
52 | COP1(=O)CC(O)C(Cl)C1 (stereo unspecified) | 82 °C
53 | CCc1csc2c(C(=O)O)c(=O)c3cc(F)c(N4CCNCC4)cc3n12 | 247 to 251 °C
54 | O=c1c2ccccc2ccn2c(SC(F)(F)F)ccc12 | 137 to 138 °C
55 | Cn1c(Sc2cccc(C(F)(F)F)c2)nc2c(-c3cccc(C(=O)NCCO)c3)cccc21 | 138 to 139 °C
56 | COc1c(Cl)ccc(-c2cc(N)c(Cl)c(C(=O)NOCc3ccco3)n2)c1F | 161 to 164 °C
57 | CN(CCSCc1nc[nH]c1CSCCN(C)C(N)=S)C(N)=S | 154 to 155 °C
58 | Cc1oc(-c2ccccc2)nc1COc1ccc(Cn2cc(CCC(=O)O)c(OCc3ccccc3)n2)cc1 | 108 to 109 °C
59 | CCc1[nH]n(C2CCCC2)c2nc(Cc3cccc(O)c3)nc(=O)c1-2 | 195 to 197 °C
60 | Cc1nc2c(C#N)ncn2c(Cl)c1-c1c(F)cc(F)cc1F | 183 °C
61 | Cc1nc2cc3c(cc2o1)C1(CO3)C(=O)N(CC2CCCO2)c2ccccc21 (stereo unspecified) | 188 to 190 °C
62 | CS(=O)c1ncc2cc(Cl)c(N)nc2n1 (stereo unspecified) | 260 to 262 °C
63 | CCCc1cc(=O)n(-c2cc(C(=O)OC(C)C)c(Cl)cc2F)c(=O)[nH]1 | 192 to 193 °C
64 | COc1cc(CCl)cc(OC)c1OCc1nc(-c2ccccc2)oc1C | 118 to 119 °C
65 | CCOC(=O)C1=CC(C(=O)c2ccccc2O)=CN2CCc3c([nH]c4ccc(OC)cc34)C12C(=O)OCC (stereo unspecified) | 212 °C
66 | CN1CCCCC1C(=O)NN=Cc1cc(Cl)cc(Cl)c1O (stereo unspecified) | 107 to 110 °C
67 | COc1cc(C(C)=O)ccc1OCCN1CCC(c2noc3cc(Cl)ccc23)CC1 | 133 to 135 °C
68 | O=C(Nc1cc(Cl)c(O)c(Cl)c1)c1ccccc1O | 217 to 219 °C
69 | C[C@H](N=C(C(N)=O)C(C)(C)C)c1ccccc1 | 100 to 101 °C
70 | NC(=O)[C@@H]1CCCN1C(=O)CNC(=O)OCc1ccccc1 | 142 to 143 °C
71 | O=C1C(c2ccccc2)=C(c2c(Cl)cccc2Cl)C(=O)N1c1ccc(Cl)cc1 | 134 °C
